Assay: Evaluation of Solubility in 5.0 mass % ammonia water
Assay type: physicochemical
Conditions: 100 ppm and 1,000 ppm, shaken 3 hours, checked visually; for (B) Solubitity: component (B)
Description: The solubility can be evaluated by known methods. For example, it can be determined under the condition of 20-35° C. (more preferably 25±2° C.) by providing a flask charged with 100 ppm of the above (A) or the below-mentioned (B) in 5.0 mass % ammonia water, covering the flask with a cap, shaking for 3 hours in a shaker, and confirming whether (A) or (B) is dissolved or not. The shaking may be stirring. Dissolution can be also judged visually. […] In the present specification, soluble includes slightly soluble in a broad sense. In the present specification, the solubility becomes low in the order of insoluble, hardly soluble and soluble. In the present specification, slightly soluble is less soluble than soluble and more soluble than hardly soluble in a narrow sense.
4 mg of each component (for example, 2,2-bis (4-hydroxyphenyl) propane) to be used thereafter is put in a 50 mL sample bottle, and 5.0 mass % ammonia water is added to make the total amount to 40 g. Covering this with a cap, it is shaken and stirred for 3 hours. This gives a liquid having a component concentration of 100 ppm.
The same procedure as described above is carried out except that the amount of each component added is changed to 40 mg, and a liquid having a component concentration of 1,000 ppm is obtained. Their solubility is checked visually. Evaluation criteria are as shown below.
X: When the dissolution residue is confirmed at 100 ppm and 1,000 ppm, it is judged to be insoluble or hardly soluble.
Y: When the dissolution residue is not confirmed at 100 ppm but confirmed at 1,000 ppm, it is judged to be slightly soluble.
Z: When the dissolution residue is confirmed at neither 100 ppm nor 1,000 ppm, it is judged to be soluble.

Compound | (A) Solubitity (component (A)) | (B) Solubitity
Oc1ccc(C(c2ccccc2)(c2ccccc2)c2ccc(O)cc2)cc1 [A11, 4,4′-dihydroxytetraphenylmethane] | X (When the dissolution residue is confirmed at 100 ppm and 1,000 ppm, it is judged to be insoluble or hardly soluble.) | –
CC(C)(c1ccc(O)cc1)c1ccc(O)cc1 [B1, 2,2-bis(4-hydroxyphenyl)propane] | – | Y (When the dissolution residue is not confirmed at 100 ppm but confirmed at 1,000 ppm, it is judged to be slightly soluble.)
Oc1ccc(CC(c2ccc(O)cc2)(c2ccc(O)cc2)c2ccc(O)cc2)cc1 [B2, 1,2,2,2-tetrakis(4-hydroxyphenyl)ethane] | – | Z (When the dissolution residue is confirmed at neither 100 ppm nor 1,000 ppm, it is judged to be soluble.)
OC1CCCC(O)C1 (centres unmarked) [B3, 1,3-cyclohexanediol] | – | Z (When the dissolution residue is confirmed at neither 100 ppm nor 1,000 ppm, it is judged to be soluble.)
Cc1ccc(O)c(Cc2cc(C)cc(Cc3cc(C)ccc3O)c2O)c1 [B4, 2,6-bis[(2-hydroxy-5-methylphenyl)methyl]-4-methylphenol] | – | Y (When the dissolution residue is not confirmed at 100 ppm but confirmed at 1,000 ppm, it is judged to be slightly soluble.)
Cc1ccc(O)c(Cc2cc(C)ccc2O)c1 [B5, 2,2′-methylenebis(4-methylphenol)] | – | Z (When the dissolution residue is confirmed at neither 100 ppm nor 1,000 ppm, it is judged to be soluble.)
Oc1ccc(-c2ccc(O)cc2)cc1 [B6, 4,4′-dihydroxybiphenyl] | – | Y (When the dissolution residue is not confirmed at 100 ppm but confirmed at 1,000 ppm, it is judged to be slightly soluble.)
Oc1ccc2cc(O)ccc2c1 [B7, 2,6-naphthalenediol] | – | Y (When the dissolution residue is not confirmed at 100 ppm but confirmed at 1,000 ppm, it is judged to be slightly soluble.)
CC(C)(O)C#CC(C)(C)O [B8, 2,5-dimethyl-3-hexyne-2,5-diol] | – | Z (When the dissolution residue is confirmed at neither 100 ppm nor 1,000 ppm, it is judged to be soluble.)
CCC(C)(O)C#CC(C)(O)CC (centres unmarked) [B9, 3,6-dimethyl-4-octin-3,6-diol] | – | Z (When the dissolution residue is confirmed at neither 100 ppm nor 1,000 ppm, it is judged to be soluble.)
CC(C)(C)c1cc(O)c(C(C)(C)C)cc1O [B10, 2,5-di-tert-butylhydroquinone] | – | Z (When the dissolution residue is confirmed at neither 100 ppm nor 1,000 ppm, it is judged to be soluble.)

Source: patent US12068150B2, “Substrate cleaning solution, and using the same, method for manufacturing cleaned substrate and method for manufacturing device” (Merck Patent GmbH, priority 2018, dated 2024)
